Source: patent US20200199692A1, “LACTIC BACTERIA AND THE USE THEREOF FOR THE PREVENTIVE, INHIBITORY AND/OR REDUCTIVE TREATMENT OF THE FORMATION OF BACTERIAL BIOFILMS” (PROBIOTICAL S.P.A., priority 2016, published 2020)
Values after ≈ are worked out from the molar mass of the structure shown. Read-outs that look alike come from different tables or passages of the source.

Key:
[1] = tested on: Lactobacillus plantarum LMC-1 ID 1952 DSM 32252; experiment: Antibiotic resistance profile (E-test, ABBiodisk); format: cell-based
Commercial Lactobacillus = experiment: Antibiotic resistance profile (E-test, ABBiodisk); format: cell-based
[2] = tested on: Commercial Bifidobacterium; experiment: Antibiotic resistance profile (E-test, ABBiodisk); format: cell-based
[3] = tested on: Lactobacillus paracasei LMC-4 ID 1953 DSM 32254; experiment: Antibiotic resistance profile (E-test, ABBiodisk); format: cell-based
[4] = tested on: Lactobacillus paracasei LMC-8 ID 1954 DSM 32258; experiment: Antibiotic resistance profile (E-test, ABBiodisk); format: cell-based
Lactobacillus plantarum = settings: Table 4 (L. plantarum); Linezolid from EFSA 2005, Quinupristin/Dalfopristin from EFSA 2008; cited from earlier work
Lactobacillus paracasei = settings: Tables 8 and 12 (L. paracasei); Linezolid from EFSA 2005, Quinupristin/Dalfopristin from EFSA 2008; cited from earlier work
[5] = Lactiplantibacillus plantarum, DSM32252, Etest strips in agar, strain Lactobacillus plantarum LMC-1 ID 1952 DSM 32252, read-out: MIC
[6] = Etest strips in agar, Commercial Lactobacillus reference strain, read-out: MIC
[7] = Etest strips in agar, Commercial Bifidobacterium reference strain, read-out: MIC
[8] = Lacticaseibacillus paracasei, DSM32254, Etest strips in agar, strain Lactobacillus paracasei LMC-4 ID 1953 DSM 32254, read-out: MIC
[9] = Lacticaseibacillus paracasei, DSM32258, Etest strips in agar, strain Lactobacillus paracasei LMC-8 ID 1954 DSM 32258, read-out: MIC
[10] = Etest strips in agar, strain Lactobacillus plantarum LMC-1 ID 1952 DSM 32252
[11] = Etest strips in agar, Commercial Lactobacillus reference strain
[12] = Etest strips in agar, Commercial Bifidobacterium reference strain
[13] = Etest strips in agar, strain Lactobacillus paracasei LMC-4 ID 1953 DSM 32254
[14] = Etest strips in agar, strain Lactobacillus paracasei LMC-8 ID 1954 DSM 32258
[15] = Lacticaseibacillus paracasei, DSM32254
[16] = Lacticaseibacillus paracasei, DSM32258

Row | Compound | MIC [1, 5] [µg/mL] | MIC (Commercial Lactobacillus; [6]) [µg/mL] | MIC [2, 7] [µg/mL] | MIC [3, 8] [µg/mL] | MIC [4, 9] [µg/mL] | EFSA Limit 2012 (Lactobacillus plantarum) [µg/mL] | EFSA Limit 2012 (Lactobacillus paracasei) [µg/mL] | also measured
1 | CC1(C)S[C@@H]2[C@H](NC(=O)[C@H](N)c3ccc(O)cc3)C(=O)N2[C@H]1C(=O)O [Amoxicillin] | 0.19 (≈ 0.52 µM) | 0.5 (≈ 1.37 µM) | 0.064 (≈ 0.175 µM) | 0.25 (≈ 0.684 µM) | 0.5 (≈ 1.37 µM) |  |  | 
2 | CC1(C)S[C@@H]2[C@H](NC(=O)[C@H](N)c3ccccc3)C(=O)N2[C@H]1C(=O)O [Ampicillin] | 0.032 (≈ 0.0916 µM) | 0.5 (≈ 1.43 µM) | 0.016 (≈ 0.0458 µM) | 0.094 (≈ 0.269 µM) | 0.38 (≈ 1.09 µM) | 2 | 4 | 
3 | CC[C@H]1OC(=O)[C@H](C)[C@@H](O[C@H]2C[C@@](C)(OC)[C@@H](O)[C@H](C)O2)[C@H](C)[C@@H](O[C@@H]2O[C@H](C)C[C@H](N(C)C)[C@H]2O)[C@](C)(O)C[C@@H](C)CN(C)[C@H](C)[C@@H](O)[C@]1(C)O [Azithromycin] | 2 (≈ 2.67 µM) | 0.38 (≈ 0.507 µM) | 0.75 (≈ 1 µM) | 0.5 (≈ 0.668 µM) | 0.75 (≈ 1 µM) |  |  | 
4 | CO[C@@]1(NC(=O)Cc2cccs2)C(=O)N2C(C(=O)O)=C(COC(N)=O)CS[C@@H]21 [Cefoxitin] | 64 (≈ 150 µM) | > 256 | 1 (≈ 2.34 µM) | > 256 | > 256 |  |  | 
5 | CO/N=C(\C(=O)N[C@@H]1C(=O)N2C(C(=O)O)=C(COC(N)=O)CS[C@H]12)c1ccco1 [Cefuroxime] | 0.064 (≈ 0.151 µM) | 1.5 (≈ 3.53 µM) | 0.25 (≈ 0.589 µM) | 0.75 (≈ 1.77 µM) | 1 (≈ 2.36 µM) |  |  | 
6 | O=C(O)c1cn(C2CC2)c2cc(N3CCNCC3)c(F)cc2c1=O [Ciprofloxacin] | > 32 | 1 (≈ 3.02 µM) | 4 (≈ 12.1 µM) | 0.75 (≈ 2.26 µM) | 1 (≈ 3.02 µM) |  |  | 
7 | CC[C@H]1OC(=O)[C@H](C)[C@@H](O[C@H]2C[C@@](C)(OC)[C@@H](O)[C@H](C)O2)[C@H](C)[C@@H](O[C@@H]2O[C@H](C)C[C@H](N(C)C)[C@H]2O)[C@](C)(OC)C[C@@H](C)C(=O)[C@H](C)[C@@H](O)[C@]1(C)O [Clarithromycin] | 0.25 (≈ 0.334 µM) | 0.047 (≈ 0.0628 µM) | 0.032 (≈ 0.0428 µM) | 0.047 (≈ 0.0628 µM) | 0.094 (≈ 0.126 µM) |  |  | 
8 | CCC[C@@H]1C[C@@H](C(=O)N[C@@H]([C@H]2O[C@H](SC)[C@H](O)[C@@H](O)[C@H]2O)[C@H](C)Cl)N(C)C1 [Clindamycin] | 2 (≈ 4.71 µM) | 0.5 (≈ 1.18 µM) | 0.047 (≈ 0.111 µM) | 0.064 (≈ 0.151 µM) | 0.094 (≈ 0.221 µM) |  |  | 
9 | O=C(N[C@H](CO)[C@H](O)c1ccc([N+](=O)[O-])cc1)C(Cl)Cl [Cloramphenicol] |  |  |  |  |  | 8 | 4 | MIC [1, 10]: 2 µg/mL (≈ 6.19 µM); MIC (Commercial Lactobacillus; [11]): 3 µg/mL (≈ 9.28 µM); MIC [2, 12]: 0.75 µg/mL (≈ 2.32 µM); MIC [3, 13]: 1.5 µg/mL (≈ 4.64 µM); MIC [4, 14]: 2.0 µg/mL (≈ 6.19 µM)
10 | CC[C@H]1OC(=O)[C@H](C)[C@@H](O[C@H]2C[C@@](C)(OC)[C@@H](O)[C@H](C)O2)[C@H](C)[C@@H](O[C@@H]2O[C@H](C)C[C@H](N(C)C)[C@H]2O)[C@](C)(O)C[C@@H](C)C(=O)[C@H](C)[C@@H](O)[C@]1(C)O [Erythromycin] | 0.75 (≈ 1.02 µM) | 0.032 (≈ 0.0436 µM) | 0.094 (≈ 0.128 µM) |  |  | 1 | 1 | MIC [3, 15]: 0.125 µg/mL (≈ 0.17 µM); MIC [4, 16]: 0.125 µg/mL (≈ 0.17 µM)
11 | C[C@@H](O)[C@H]1C(=O)N2C(C(=O)O)=C(SCCN=CN)C[C@H]12 [Imipenem] | 0.047 (≈ 0.157 µM) | 2 (≈ 6.68 µM) | 0.25 (≈ 0.835 µM) | 1.5 (≈ 5.01 µM) | 0.75 (≈ 2.51 µM) |  |  | 
12 | NC[C@H]1O[C@H](O[C@H]2[C@H](O)[C@@H](O[C@H]3O[C@H](CO)[C@@H](O)[C@H](N)[C@H]3O)[C@H](N)C[C@@H]2N)[C@H](O)[C@@H](O)[C@@H]1O [Kanamycin] | 64 (≈ 132 µM) | 128 (≈ 264 µM) |  | 24 (≈ 49.5 µM) | 64 (≈ 132 µM) |  |  | 
13 | CC(=O)NC[C@H]1CN(c2ccc(N3CCOCC3)c(F)c2)C(=O)O1 [Linezolid] | 1.5 (≈ 4.45 µM) | 2 (≈ 5.93 µM) | 0.38 (≈ 1.13 µM) | 0.38 (≈ 1.13 µM) | 1.5 (≈ 4.45 µM) | 4 | 4 | 
14 | CO[C@H]1/C=C/O[C@@]2(C)Oc3c(C)c(O)c4c(O)c(c(/C=N/N5CCN(C)CC5)c(O)c4c3C2=O)NC(=O)/C(C)=C\C=C\[C@H](C)[C@H](O)[C@@H](C)[C@@H](O)[C@@H](C)[C@H](OC(C)=O)[C@@H]1C [Rifampicin] | 0.25 (≈ 0.304 µM) | 0.094 (≈ 0.114 µM) | 0.094 (≈ 0.114 µM) | 0.016 (≈ 0.0194 µM) | 0.032 (≈ 0.0389 µM) |  |  | 
15 | [H]/N=C(/N)N[C@H]1[C@H](O)[C@@H](O)[C@H](O[C@@H]2O[C@@H](C)[C@](O)(C=O)[C@H]2O[C@@H]2O[C@@H](CO)[C@H](O)[C@@H](O)[C@@H]2NC)[C@@H](N/C(N)=N\[H])[C@@H]1O [Streptomycin] | 16 (≈ 27.5 µM) | 12 (≈ 20.6 µM) | 64 (≈ 110 µM) | 12 (≈ 20.6 µM) | 24 (≈ 41.3 µM) |  | 64 | 
16 | CN(C)[C@@H]1C(O)=C(C(N)=O)C(=O)[C@@]2(O)C(O)=C3C(=O)c4c(O)cccc4[C@@](C)(O)[C@H]3C[C@@H]12 [Tetracycline] | 12 (≈ 27 µM) | 0.5 (≈ 1.13 µM) | 8 (≈ 18 µM) | 0.19 (≈ 0.428 µM) | 0.38 (≈ 0.855 µM) |  |  | 
17 | CN[C@H](CC(C)C)C(=O)N[C@H]1C(=O)N[C@@H](CC(N)=O)C(=O)N[C@H]2C(=O)N[C@H]3C(=O)N[C@H](C(=O)N[C@H](C(=O)O)c4cc(O)cc(O)c4-c4cc3ccc4O)[C@H](O)c3ccc(c(Cl)c3)Oc3cc2cc(c3O[C@@H]2O[C@H](CO)[C@@H](O)[C@H](O)[C@H]2O[C@H]2C[C@](C)(N)[C@H](O)[C@H](C)O2)Oc2ccc(cc2Cl)[C@H]1O [Vancomycin] |  |  |  |  |  |  |  | MIC ([1]; Lactiplantibacillus plantarum, DSM32252): > 256 µg/mL; MIC (Commercial Lactobacillus; Lactobacillus): > 256 µg/mL; MIC ([2]; Bifidobacterium): 0.38 µg/mL (≈ 0.262 µM); MIC [3, 15]: > 256 µg/mL; MIC [4, 16]: > 256 µg/mL
18 | Gentamicin |  |  |  |  |  | 16 | 32 | MIC [1, 10]: 4 µg/mL; MIC (Commercial Lactobacillus; [11]): 6 µg/mL; MIC [2, 12]: 48 µg/mL; MIC [3, 13]: 2 µg/mL; MIC [4, 14]: 4 µg/mL
19 | Quinupristin/Dalfopristin |  |  |  |  |  | 4 | 4 | MIC [1, 10]: 0.38 µg/mL; MIC (Commercial Lactobacillus; [11]): 1 µg/mL; MIC [2, 12]: 0.25 µg/mL; MIC [3, 13]: 0.094 µg/mL; MIC [4, 14]: 0.25 µg/mL
